According to patent US9777003B2, “Tricyclic heterocycles as bet protein inhibitors” (Incyte Corporation, priority 2013, dated 2017):
Counter-ions that a name gives are not always drawn.

Tests used:
BRD4-BD2 = BRD4-BD2 (Homo sapiens (Human), UniProt O60885); experiment: BRD4 AlphaScreen assay, BRD4-BD2; assay type: binding; conditions: biotin-labeled tetra-acetylated histone H4 peptide, 75 min, room temperature, read-out: BRD4 BD-2 enzyme IC50
Procedure: (§1) BRD4-BD1 and BRD4-BD2 assays were conducted in white 384-well polystyrene plate in a final volume of 20 μL for BD1 and 40 μL for BD2. Inhibitors were first serially diluted in DMSO and added to the plate wells before the addition of other reaction components. The final concentration of DMSO in the assay was 1.25% (BD1) and 0.83% (BD2). The assays were carried out at room temperature for 75 min. in the assay buffer (50 mM HEPES, pH 7.4, 100 mM NaCl, 0.05% CHAPS, 0.01% BSA), containing 50 nM Biotin-labeled tetra-acetylated histone H4 peptide (H4Ac4), 3.8 nM (BRD4-BD1, BPS Bioscience #31040) or 20 nM (BRD4-BD2, BPS Bioscience #31041). The reaction followed by the addition of 20 μL of assay buffer supplemented with Streptavidin donor beads (PerkinElmer 6760002) and GSH Acceptor beads (PerkinElmer-AL109C) at 4 μg/mL under reduced light. After plate sealing, the plate was incubated in the dark at room temperature for 75 min. before reading on a PHERAstar FS plate reader (BMG Labtech). IC50 determination was performed by fitting the curve of percent control activity versus the log of the inhibitor concentration using the GraphPad Prism 5.0 software.

BRD4-BD1 = BRD4-BD1 (Homo sapiens (Human), UniProt O60885); experiment: BRD4 AlphaScreen assay, BRD4-BD1; assay type: binding; conditions: biotin-labeled tetra-acetylated histone H4 peptide, 75 min, room temperature, read-out: BRD4 BD-1 enzyme IC50
Procedure: as §1

Compound	IC50 (BRD4-BD2) [nM]	IC50 (BRD4-BD1) [nM]
Cc1cc2c(cc(NC(N)=O)c3nnc(C)n32)n1Cc1c(F)cccc1F [Example 254, 1-(6-(2,6-Difluorobenzyl)-1,7-dimethyl-6H-pyrrolo[2,3-e][1,2,4]triazolo[4,3-a]pyridin-4-yl)urea]	≤ 100	≤ 100
Cc1cc2c(ccc3nnc(C)n32)n1Cc1ccccc1Cl [Example 8, 6-(2-chlorobenzyl)-1,7-dimethyl-6H-pyrrolo[2,3-e][1,2,4]triazolo[4,3-a]pyridine]	≤ 100	100 to 1000
CNC(=O)c1cc2c(ccc3nnc(C)n32)n1Cc1cccc(Cl)c1 [Example 99, 6-(3-chlorobenzyl)-N,1-dimethyl-6H-pyrrolo[2,3-e][1,2,4]triazolo[4,3-a]pyridine-7-carboxamide]	≤ 100	≤ 100
Cc1nnc2ccc3c(cc(-c4ccn[nH]4)n3Cc3ccccc3)n12 [Example 62, 6-benzyl-1-methyl-7-(1H-pyrazol-5-yl)-6H-pyrrolo[2,3-e][1,2,4]triazolo[4,3-a]pyridine]	≤ 100	≤ 100
Cc1cc2c(ccc3nnc(C)n32)n1CC1CCCC1 [Example 13, 6-(cyclopentylmethyl)-1,7-dimethyl-6H-pyrrolo[2,3-e][1,2,4]triazolo[4,3-a]pyridine]	≤ 100	100 to 1000
Cc1cc2c(cc(NC(N)=O)c3nnc(C)n32)n1Cc1ccc(F)cc1 [Example 239, 1-(6-(4-Fluorobenzyl)-1,7-dimethyl-6H-pyrrolo[2,3-e][1,2,4]triazolo[4,3-a]pyridin-4-yl)urea]	≤ 100	≤ 100
Cc1cc2c(cc(Nc3cccnc3)c3nnc(C)n32)n1Cc1ccccc1 [Example 256, 6-Benzyl-1,7-dimethyl-N-(pyridin-3-yl)-6H-pyrrolo[2,3-e][1,2,4]triazolo[4,3-a]pyridin-4-amine]	≤ 100	≤ 100
Cc1nnc2ccc3c(cc(-c4ccn(CCO)n4)n3Cc3cccc(Cl)c3)n12 [Example 178, 2-{3-[6-(3-Chlorobenzyl)-1-methyl-6H-pyrrolo[2,3-e][1,2,4]triazolo[4,3-a]pyridin-7-yl]-1H-pyrazol-1-yl}ethanol Trifluoroacetate Salt]	≤ 100	≤ 100
CCCNc1cc2c(cc(C)n2Cc2ccccc2)n2c(C)nnc12 [Example 262, 6-Benzyl-N-propyl-1,7-dimethyl-6H-pyrrolo[2,3-e][1,2,4]triazolo[4,3-a]pyridin-4-amine]	≤ 100	≤ 100
Cc1cc2c(cc(N[C@@H]3CCOC3)c3nnc(C)n32)n1Cc1ccccc1 [Example 147, 6-benzyl-1,7-dimethyl-N-[(3R)-tetrahydrofuran-3-yl]-6H-pyrrolo[2,3-e][1,2,4]triazolo[4,3-a]pyridin-4-amine]	≤ 100	≤ 100
Cc1nnc2ccc3c(cc(-c4ccn(C5CN(S(=O)(=O)N(C)C)C5)n4)n3Cc3cccc(Cl)c3)n12 [Example 161, 3-{3-[6-(3-Chlorobenzyl)-1-methyl-6H-pyrrolo[2,3-e][1,2,4]triazolo[4,3-a]pyridin-7-yl]-1H-pyrazol-1-yl}-N,N-dimethylazetidine-1-sulfonamide bis(trifluoroacetate) Salt]	≤ 100	≤ 100
Cc1cc2c(ccc3nnc(C)n32)n1Cc1cccc(C(=O)NO)c1 [Example 31, 3-[(1,7-dimethyl-6H-pyrrolo[2,3-e][1,2,4]triazolo[4,3-a]pyridin-6-yl)methyl]-N-hydroxybenzamide Trifluoroacetate Salt]	≤ 100	100 to 1000
Cc1cc2c(ccc3nnc(C)n32)n1Cc1ccc(CN2CC(O)C2)cc1 [Example 52, 1-{4-[(1,7-dimethyl-6H-pyrrolo[2,3-e][1,2,4]triazolo[4,3-a]pyridin-6-yl)methyl]benzyl}azetidin-3-ol]	100 to 1000	100 to 1000
Cc1nnc2ccc3c(cc(-c4ccn(CC#N)n4)n3Cc3ccccc3)n12 [Example 65, [3-(6-benzyl-1-methyl-6H-pyrrolo[2,3-e][1,2,4]triazolo[4,3-a]pyridin-7-yl)-1H-pyrazol-1-yl]acetonitrile]	≤ 100	≤ 100
Cc1nnc2ccc3c(cc(-c4ccsc4)n3Cc3ccccc3)n12 [Example 72, 6-benzyl-1-methyl-7-(3-thienyl)-6H-pyrrolo[2,3-e][1,2,4]triazolo[4,3-a]pyridine]	≤ 100	≤ 100
Cc1nnc2ccc3c(cc(-c4ccn(C)n4)n3Cc3cc(Cl)cc(CN4CCCC4)c3)n12 [Example 190, 6-[3-Chloro-5-(pyrrolidin-1-ylmethyl)benzyl]-1-methyl-7-(1-methyl-1H-pyrazol-3-yl)-6H-pyrrolo[2,3-e][1,2,4]triazolo[4,3-a]pyridine bis(trifluoroacetate) Salt]	≤ 100	≤ 100
Cc1cc2c(ccc3nnc(C)n32)n1Cc1cccc(CN2CCOCC2)c1 [Example 38, 1,7-dimethyl-6-[3-(morpholin-4-ylmethyl)benzyl]-6H-pyrrolo[2,3-e][1,2,4]triazolo[4,3-a]pyridine]	≤ 100	100 to 1000
Cc1nnc2ccc3c(cc(-c4ccn(CCC(=O)N5CCOCC5)n4)n3Cc3cccc(Cl)c3)n12 [Example 169, 6-(3-Chlorobenzyl)-1-methyl-7-[1-(3-morpholin-4-yl-3-oxopropyl)-1H-pyrazol-3-yl]-6H-pyrrolo[2,3-e][1,2,4]triazolo[4,3-a]pyridine Trifluoroacetate Salt]	≤ 100	≤ 100
CCOC(=O)N1CC(n2ccc(-c3cc4c(ccc5nnc(C)n54)n3Cc3cccc(Cl)c3)n2)C1 [Example 167, Ethyl 3-{3-[6-(3-chlorobenzyl)-1-methyl-6H-pyrrolo[2,3-e][1,2,4]triazolo[4,3-a]pyridin-7-yl]-1H-pyrazol-1-yl}azetidine-1-carboxylate Trifluoroacetate Salt]	≤ 100	≤ 100
Cc1cc2c(cc(NC(C)C)c3nnc(C)n32)n1Cc1ccccc1 [Example 263, 6-Benzyl-N-isopropyl-1,7-dimethyl-6H-pyrrolo[2,3-e][1,2,4]triazolo[4,3-a]pyridin-4-amine]	≤ 100	≤ 100
CCn1ccc(-c2cc3c(ccc4nnc(C)n43)n2Cc2ccccc2)n1 [Example 79, 6-benzyl-7-(1-ethyl-1H-pyrazol-3-yl)-1-methyl-6H-pyrrolo[2,3-e][1,2,4]triazolo[4,3-a]pyridine]	≤ 100	≤ 100
CCNC(=O)Nc1cc2c(cc(C)n2Cc2ccccc2)n2c(C)nnc12 [Example 249, 1-(6-Benzyl-1,7-dimethyl-6H-pyrrolo[2,3-e][1,2,4]triazolo[4,3-a]pyridin-4-yl)-3-ethylurea]	≤ 100	≤ 100
Cc1nnc2ccc3c(cc(CO)n3Cc3ccccc3)n12 [Example 56, (6-benzyl-1-methyl-6H-pyrrolo[2,3-e][1,2,4]triazolo[4,3-a]pyridin-7-yl)methanol]	≤ 100	100 to 1000
CNC(=O)Nc1cc2c(cc(C)n2Cc2ccccc2)n2c(C)nnc12 [Example 229, 1-(6-Benzyl-1,7-dimethyl-6H-pyrrolo[2,3-e][1,2,4]triazolo[4,3-a]pyridin-4-yl)-3-methylurea]	≤ 100	≤ 100
Cc1cc2c(cc(N[C@H]3CC[C@@H](C#N)CC3)c3nnc(C)n32)n1Cc1ccccc1 (single isomer, unassigned) [Example 215 b, 4-[(6-benzyl-1,7-dimethyl-6H-pyrrolo[2,3-e][1,2,4]triazolo[4,3-a]pyridin-4-yl)amino]cyclohexanecarbonitrile Trifluoroacetate Salt]	≤ 100	≤ 100
Cc1nnc2ccc3c(cc(C(=O)NCC4CC4)n3Cc3cccc(Cl)c3)n12 [Example 114, 6-(3-Chlorobenzyl)-N-(cyclopropylmethyl)-1-methyl-6H-pyrrolo[2,3-e][1,2,4]triazolo[4,3-a]pyridine-7-carboxamide Trifluoroacetate Salt]	≤ 100	≤ 100
Cc1cc2c(ccc3nnc(C)n32)n1Cc1ccc(CN2CCCC2)cc1 [Example 51, 1,7-dimethyl-6-[4-(pyrrolidin-1-ylmethyl)benzyl]-6H-pyrrolo[2,3-e][1,2,4]triazolo[4,3-a]pyridine]	100 to 1000	100 to 1000
Cc1cc2c(ccc3nnc(C)n32)n1Cc1cccc(CN(C)CCO)c1 [Example 37, 2-[{3-[(1,7-dimethyl-6H-pyrrolo[2,3-e][1,2,4]triazolo[4,3-a]pyridin-6-yl)methyl]benzyl}(methyl)amino]ethanol]	≤ 100	100 to 1000
Cc1cc2c(cc(NC3CCN(C(=O)OC(C)(C)C)CC3)c3nnc(C)n32)n1Cc1ccccc1 [Example 214, tert-Butyl 4-[(6-benzyl-1,7-dimethyl-6H-pyrrolo[2,3-e][1,2,4]triazolo[4,3-a]pyridin-4-yl)amino]piperidine-1-carboxylate]	≤ 100	100 to 1000
Cc1nnc2ccc3c(cc(C(=O)NCC4CNC4)n3Cc3ccccc3)n12 [Example 124, N-(Azetidin-3-ylmethyl)-6-benzyl-1-methyl-6H-pyrrolo[2,3-e][1,2,4]triazolo[4,3-a]pyridine-7-carboxamide bis(trifluoroacetate) Salt]	1000 to 10000	1000 to 10000
